Data from US20240075003A1, “Pelargonic Acid for Use Against Viral Infections” (priority 2021, published 2024).
Entries after “also recorded” stand apart in the source; their conditions may differ.

Key:
[1] = tested on: Porcine Reproductive and Respiratory Syndrome virus (PRRS); assay: Cytopathic effect (CPE) in Vero cells infected with PRRS virus, MCFA mixtures added; format: cell-based; design: key: 4 = total destruction of the cells; 3 = medium destruction; 2 = low destruction; 1 = no destruction; settings: 0.1% concentration in tissue culture, 5 days post infection
PED virus = format: cell-based, Porcine Epidemic Diarrhea virus
ASF = tested on: ASF; design: species or system African Swine Fever Virus
[2] = tested on: African Swine Fever Virus (ASFV)

SMILES	CPE (first test) [1]	CPE (second test) [1]	Protection against viral infection and cytolytic effect of the cells (PED virus)	Viral load of ASF compared with ester form or untreated feed (ASF)	Cq value for ASFV compared to positive control [2]
CCCCCC(=O)O [100% C6, caproic acid]	3/3	3/3			
CCCCCCCC(=O)O [100% C8, caprylic acid]	2/2	2/2			
CCCCCCCCC(=O)O [100% C9, pelargonic acid]	2/2	2/2	gave the best results	significantly reduced the viral load	
CCCCCCCCCC(=O)O [100% C10, capric acid]	2	4			
CCCCCCCCC(=O)O [Composition F1, pelargonic acid]					significantly increase the Cq value; also recorded: induced a statistical increase in Cq value
